# Calls of active or inactive are those of the source.
# Tests used:
# [1] = biological target: Nucleotide-binding oligomerization domain-containing protein 2 (Homo sapiens, UniProt Q9HC29); experiment: PubChem AID 2334; type: functional
# HEK293 = experiment: cells; settings: Homo sapiens;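 further: cells exposed to compound for 14 hours overnight before viability readout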
# [2] = biological target: T1, Nucleotide-binding oligomerization domain-containing protein 1 (Homo sapiens, UniProt Q9Y239); experiment: NOD1 signaling inhibitors, SAR follow-up, revised (AID 2333); type: functional
# T1 sequence (Q9Y239 whole entry): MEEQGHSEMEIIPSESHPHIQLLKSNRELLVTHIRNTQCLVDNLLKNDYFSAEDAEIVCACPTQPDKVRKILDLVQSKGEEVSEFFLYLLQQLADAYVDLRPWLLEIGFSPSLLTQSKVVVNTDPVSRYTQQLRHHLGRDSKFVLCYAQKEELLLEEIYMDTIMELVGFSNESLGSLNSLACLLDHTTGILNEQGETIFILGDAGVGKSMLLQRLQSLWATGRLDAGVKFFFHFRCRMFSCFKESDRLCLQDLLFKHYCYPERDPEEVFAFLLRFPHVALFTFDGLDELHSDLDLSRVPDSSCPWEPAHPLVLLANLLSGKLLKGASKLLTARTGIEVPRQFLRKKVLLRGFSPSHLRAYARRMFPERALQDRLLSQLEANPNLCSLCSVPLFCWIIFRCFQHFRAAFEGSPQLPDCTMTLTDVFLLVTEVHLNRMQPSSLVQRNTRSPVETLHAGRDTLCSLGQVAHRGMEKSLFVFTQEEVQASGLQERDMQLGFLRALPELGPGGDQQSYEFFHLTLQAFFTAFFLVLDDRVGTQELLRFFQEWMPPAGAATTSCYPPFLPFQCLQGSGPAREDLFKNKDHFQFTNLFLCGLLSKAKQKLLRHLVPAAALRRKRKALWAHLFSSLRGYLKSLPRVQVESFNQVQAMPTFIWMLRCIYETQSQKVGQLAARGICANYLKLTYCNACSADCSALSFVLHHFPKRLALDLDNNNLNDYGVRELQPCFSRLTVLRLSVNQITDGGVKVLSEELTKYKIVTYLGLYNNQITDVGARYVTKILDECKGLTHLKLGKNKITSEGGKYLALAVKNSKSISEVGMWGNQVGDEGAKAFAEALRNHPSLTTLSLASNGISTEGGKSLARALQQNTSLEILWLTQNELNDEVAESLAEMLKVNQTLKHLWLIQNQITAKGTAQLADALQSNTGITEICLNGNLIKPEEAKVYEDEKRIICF
# Tumor necrosis factor = Tumor necrosis factor (Homo sapiens, UniProt P01375); experiment: TNFa-triggered NF-kB activation inhibitors, SAR follow-up, cell-based, revised (AID 2337); type: functional
# Sequence of Tumor necrosis factor (P01375 whole entry): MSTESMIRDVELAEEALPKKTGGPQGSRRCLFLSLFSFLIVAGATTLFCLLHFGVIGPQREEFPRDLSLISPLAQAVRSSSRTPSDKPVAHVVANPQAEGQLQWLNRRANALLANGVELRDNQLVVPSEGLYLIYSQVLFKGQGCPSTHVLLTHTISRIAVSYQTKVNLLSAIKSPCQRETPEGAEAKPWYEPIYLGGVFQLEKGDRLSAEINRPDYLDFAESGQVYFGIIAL
# Beta-galactosidase = Beta-galactosidase (Escherichia coli, UniProt Q8VNN2); experiment: beta-galactosidase enzyme inhibitors and activators, dose response, artefact control for CCR6 antagonist project, biochemical, E. coli enzyme, set 3 (AID 504712); type: functional
# Fatty acid synthase [3] = biological target: T2, Fatty acid synthase (Homo sapiens, UniProt P49327); experiment: FAS thioesterase domain inhibitors, dose response, biochemical, endpoint fluorescence intensity, uHTS hits (AID 624327); type: functional;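 further: fluorescence from hydrolysis of an O-methyl fluorescein acyl ester substrate by the enzyme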
# T2 sequence (P49327 whole entry, the tested form may be a part): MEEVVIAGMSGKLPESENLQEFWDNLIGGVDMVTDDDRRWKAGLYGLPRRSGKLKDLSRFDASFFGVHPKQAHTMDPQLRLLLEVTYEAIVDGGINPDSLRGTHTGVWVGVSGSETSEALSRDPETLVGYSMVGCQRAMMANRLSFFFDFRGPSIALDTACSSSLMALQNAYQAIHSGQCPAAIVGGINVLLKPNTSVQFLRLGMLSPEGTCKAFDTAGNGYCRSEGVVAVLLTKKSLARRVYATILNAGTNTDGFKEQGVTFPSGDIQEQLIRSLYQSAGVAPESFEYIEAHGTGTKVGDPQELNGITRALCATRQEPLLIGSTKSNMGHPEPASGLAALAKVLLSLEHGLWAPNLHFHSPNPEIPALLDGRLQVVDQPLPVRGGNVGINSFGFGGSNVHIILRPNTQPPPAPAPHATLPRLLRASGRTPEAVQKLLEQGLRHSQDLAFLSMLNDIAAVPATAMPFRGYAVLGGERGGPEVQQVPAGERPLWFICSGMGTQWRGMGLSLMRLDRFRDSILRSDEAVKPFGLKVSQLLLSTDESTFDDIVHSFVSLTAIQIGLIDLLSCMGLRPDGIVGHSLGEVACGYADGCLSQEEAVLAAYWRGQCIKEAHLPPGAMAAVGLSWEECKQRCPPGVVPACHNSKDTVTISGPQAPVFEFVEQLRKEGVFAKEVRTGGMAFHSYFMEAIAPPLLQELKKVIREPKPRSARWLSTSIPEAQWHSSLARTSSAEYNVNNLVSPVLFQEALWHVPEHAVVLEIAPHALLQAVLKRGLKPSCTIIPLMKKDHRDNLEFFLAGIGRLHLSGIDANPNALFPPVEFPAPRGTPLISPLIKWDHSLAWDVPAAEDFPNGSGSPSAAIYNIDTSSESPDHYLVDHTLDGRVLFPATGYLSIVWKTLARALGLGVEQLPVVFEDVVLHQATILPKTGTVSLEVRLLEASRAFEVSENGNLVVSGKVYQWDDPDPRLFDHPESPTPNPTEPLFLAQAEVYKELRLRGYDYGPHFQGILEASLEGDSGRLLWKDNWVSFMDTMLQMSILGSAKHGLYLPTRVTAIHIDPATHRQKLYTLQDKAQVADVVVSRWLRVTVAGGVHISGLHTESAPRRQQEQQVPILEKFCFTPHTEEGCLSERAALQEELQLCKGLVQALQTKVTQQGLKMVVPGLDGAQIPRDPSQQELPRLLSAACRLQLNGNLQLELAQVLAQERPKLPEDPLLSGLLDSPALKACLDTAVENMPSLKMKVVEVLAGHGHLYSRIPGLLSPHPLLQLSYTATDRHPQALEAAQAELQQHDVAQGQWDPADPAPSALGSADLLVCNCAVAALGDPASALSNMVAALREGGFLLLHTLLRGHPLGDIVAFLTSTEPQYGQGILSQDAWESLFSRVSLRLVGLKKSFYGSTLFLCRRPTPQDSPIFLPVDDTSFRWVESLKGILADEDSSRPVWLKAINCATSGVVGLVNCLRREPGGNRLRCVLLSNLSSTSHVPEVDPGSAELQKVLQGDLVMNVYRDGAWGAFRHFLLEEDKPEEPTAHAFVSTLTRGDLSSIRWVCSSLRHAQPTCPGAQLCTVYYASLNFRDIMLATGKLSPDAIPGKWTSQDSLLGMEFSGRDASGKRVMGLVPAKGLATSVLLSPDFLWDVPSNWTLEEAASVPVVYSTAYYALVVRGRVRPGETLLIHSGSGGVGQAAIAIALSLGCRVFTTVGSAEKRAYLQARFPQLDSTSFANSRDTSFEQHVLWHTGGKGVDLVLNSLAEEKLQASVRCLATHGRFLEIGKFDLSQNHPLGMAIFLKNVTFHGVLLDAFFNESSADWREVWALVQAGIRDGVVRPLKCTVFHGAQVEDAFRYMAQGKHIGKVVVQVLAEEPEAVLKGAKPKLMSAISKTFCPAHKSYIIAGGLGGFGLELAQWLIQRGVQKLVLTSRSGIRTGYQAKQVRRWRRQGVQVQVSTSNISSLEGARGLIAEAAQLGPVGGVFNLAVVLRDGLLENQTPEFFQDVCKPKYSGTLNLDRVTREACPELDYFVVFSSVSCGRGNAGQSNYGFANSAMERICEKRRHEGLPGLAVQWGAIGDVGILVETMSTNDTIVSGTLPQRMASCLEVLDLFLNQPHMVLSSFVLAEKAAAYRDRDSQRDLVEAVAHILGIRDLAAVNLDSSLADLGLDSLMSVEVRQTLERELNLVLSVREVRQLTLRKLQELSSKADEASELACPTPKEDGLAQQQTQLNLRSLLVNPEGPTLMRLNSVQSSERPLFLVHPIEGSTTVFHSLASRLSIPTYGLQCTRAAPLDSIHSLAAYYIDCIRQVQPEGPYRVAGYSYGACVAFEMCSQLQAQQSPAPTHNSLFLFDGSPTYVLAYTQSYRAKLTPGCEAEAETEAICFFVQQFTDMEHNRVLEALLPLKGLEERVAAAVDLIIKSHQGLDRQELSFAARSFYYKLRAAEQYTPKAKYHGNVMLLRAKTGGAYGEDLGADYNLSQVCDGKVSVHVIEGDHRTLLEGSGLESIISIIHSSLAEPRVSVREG
# [4] = HeLa cell cytotoxicity, dose response, cytotoxicity control for MgcRacGAP inhibitor project (AID 624300); type: functional
# [5] = Shn3 3'UTR reporter inhibitors, dose response, cell-based, Clone20 osteoblasts, firefly luciferase, cherry-picked (AID 624132); type: functional;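 further: firefly luciferase luminescence from reporter carrying the Shn3 3'UTR in osteoblasts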
# [6] = biological target: T3, Rac GTPase-activating protein 1 (Homo sapiens, UniProt Q9H0H5); experiment: MgcRacGAP GTPase-activating activity inhibitors, confirmation, biochemical, ADP Hunter fluorescence, primary and confirmatory (AID 624330); type: functional
# T3 sequence (Q9H0H5 whole entry): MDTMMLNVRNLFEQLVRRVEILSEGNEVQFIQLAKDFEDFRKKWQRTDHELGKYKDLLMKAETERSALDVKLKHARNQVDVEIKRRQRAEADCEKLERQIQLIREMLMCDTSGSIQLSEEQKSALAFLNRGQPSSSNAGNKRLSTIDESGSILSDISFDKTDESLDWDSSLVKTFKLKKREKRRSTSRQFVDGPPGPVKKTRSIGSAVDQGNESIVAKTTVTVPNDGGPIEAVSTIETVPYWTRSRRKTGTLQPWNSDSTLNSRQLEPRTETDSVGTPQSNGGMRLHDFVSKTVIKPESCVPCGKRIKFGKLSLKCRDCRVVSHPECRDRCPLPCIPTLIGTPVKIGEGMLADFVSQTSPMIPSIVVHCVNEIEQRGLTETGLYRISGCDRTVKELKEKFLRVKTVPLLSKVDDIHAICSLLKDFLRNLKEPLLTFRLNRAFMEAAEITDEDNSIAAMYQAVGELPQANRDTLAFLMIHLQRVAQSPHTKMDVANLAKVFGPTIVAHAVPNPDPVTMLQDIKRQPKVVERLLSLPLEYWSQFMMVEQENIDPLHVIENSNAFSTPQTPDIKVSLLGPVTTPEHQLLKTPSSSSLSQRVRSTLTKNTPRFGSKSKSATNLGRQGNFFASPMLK
# [7] = HepG2 cell cytotoxicity, dose response, cytotoxicity control for Shn3 inhibitor project, CellTiter-Glo, cherry-picked (AID 624134); type: functional, cell-based
# Fatty acid synthase [8] = biological target: T2, Fatty acid synthase; experiment: FAS thioesterase domain inhibitors, dose response, biochemical, kinetic fluorescence intensity (AID 624326); type: functional;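 further: rate of fluorescence rise from hydrolysis of a fluorogenic O-methyl fluorescein ester substrate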
# [9] = biological target: C-C chemokine receptor type 6 (Homo sapiens, UniProt P51684); experiment: CCR6 receptor antagonists, dose response, cell-based, luminescent beta-arrestin readout (AID 504728); type: functional
# Sequence of C-C chemokine receptor type 6 (P51684 whole entry): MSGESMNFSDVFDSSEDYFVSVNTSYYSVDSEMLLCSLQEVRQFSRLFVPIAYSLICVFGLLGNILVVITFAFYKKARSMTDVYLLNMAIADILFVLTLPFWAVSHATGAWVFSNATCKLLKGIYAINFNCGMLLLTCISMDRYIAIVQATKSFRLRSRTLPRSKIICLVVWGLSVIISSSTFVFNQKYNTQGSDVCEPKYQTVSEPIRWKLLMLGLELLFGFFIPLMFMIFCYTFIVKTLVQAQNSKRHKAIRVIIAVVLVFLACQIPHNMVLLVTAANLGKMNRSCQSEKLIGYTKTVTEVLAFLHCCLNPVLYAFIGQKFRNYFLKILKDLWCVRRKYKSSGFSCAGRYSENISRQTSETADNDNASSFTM
# [10] = control 3'UTR Renilla luciferase suppression, dose response, counter-screen for Shn3 inhibitor project, cell-based, Clone20-Shn3RL, cherry-picked (AID 624133); type: functional
# Genome polyprotein = Genome polyprotein (dengue virus type 2, UniProt P29990); experiment: Dengue-2 NS5 methyltransferase inhibitors, primary screen, biochemical, confirmation dose response (AID 588689); type: functional
# Sequence of Genome polyprotein (P29990 2492-3391 limits assumed): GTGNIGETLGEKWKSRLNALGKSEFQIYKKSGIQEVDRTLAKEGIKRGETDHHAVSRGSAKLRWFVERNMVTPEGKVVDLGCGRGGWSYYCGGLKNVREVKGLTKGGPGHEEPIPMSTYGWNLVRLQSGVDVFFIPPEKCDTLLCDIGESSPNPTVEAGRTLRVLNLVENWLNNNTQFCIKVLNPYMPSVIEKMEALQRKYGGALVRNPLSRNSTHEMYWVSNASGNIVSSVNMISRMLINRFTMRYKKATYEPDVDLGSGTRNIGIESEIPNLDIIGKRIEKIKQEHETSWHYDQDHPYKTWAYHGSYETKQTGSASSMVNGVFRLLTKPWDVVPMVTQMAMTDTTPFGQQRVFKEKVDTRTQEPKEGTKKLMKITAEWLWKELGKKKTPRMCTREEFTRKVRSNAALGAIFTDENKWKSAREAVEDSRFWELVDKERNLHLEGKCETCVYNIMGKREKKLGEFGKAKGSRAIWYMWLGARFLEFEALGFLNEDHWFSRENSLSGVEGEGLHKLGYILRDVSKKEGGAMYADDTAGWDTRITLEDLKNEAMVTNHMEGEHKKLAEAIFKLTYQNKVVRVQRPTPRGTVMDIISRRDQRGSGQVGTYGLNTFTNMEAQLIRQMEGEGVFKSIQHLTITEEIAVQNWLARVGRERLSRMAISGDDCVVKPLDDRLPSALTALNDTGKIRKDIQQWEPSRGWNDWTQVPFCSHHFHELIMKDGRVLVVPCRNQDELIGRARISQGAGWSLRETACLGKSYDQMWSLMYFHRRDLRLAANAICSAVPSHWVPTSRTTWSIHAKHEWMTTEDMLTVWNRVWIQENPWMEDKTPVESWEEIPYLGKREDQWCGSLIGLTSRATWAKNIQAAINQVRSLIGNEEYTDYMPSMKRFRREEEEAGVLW
# Vero = Vero cell cytotoxicity, cytotoxicity control for flavivirus capping enzyme inhibitors (AID 588742); type: functional; settings: Chlorocebus sabaeus
# [11] = biological target: T4, Voltage-gated N-type calcium channel alpha-1B subunit/Amyloid beta A4 precursor protein-binding family A member 1 (Homo sapiens, UniProt Q00975+Q02410); experiment: disruptors of Mint-PDZ/N-type channel peptide interaction – biochemical, HTRF, set 2, SAR follow-up (AID 434980); type: functional
# [12] = biological target: T4, Voltage-gated N-type calcium channel alpha-1B subunit/Amyloid beta A4 precursor protein-binding family A member 1; experiment: disruptors of Mint-PDZ/N-type channel peptide interaction – biochemical, HTRF, SAR follow-up (AID 2489); type: functional
# [13] = biological target: Metabotropic glutamate receptor 4 (Rattus norvegicus, UniProt P31423); experiment: Modulation of the Metabotropic Glutamate Receptor mGluR4: Rat PAM Potency. [Related pubchem assays (depositor defined):AID2437, AID2807]; type: functional
# Sequence of Metabotropic glutamate receptor 4 (P31423 whole entry): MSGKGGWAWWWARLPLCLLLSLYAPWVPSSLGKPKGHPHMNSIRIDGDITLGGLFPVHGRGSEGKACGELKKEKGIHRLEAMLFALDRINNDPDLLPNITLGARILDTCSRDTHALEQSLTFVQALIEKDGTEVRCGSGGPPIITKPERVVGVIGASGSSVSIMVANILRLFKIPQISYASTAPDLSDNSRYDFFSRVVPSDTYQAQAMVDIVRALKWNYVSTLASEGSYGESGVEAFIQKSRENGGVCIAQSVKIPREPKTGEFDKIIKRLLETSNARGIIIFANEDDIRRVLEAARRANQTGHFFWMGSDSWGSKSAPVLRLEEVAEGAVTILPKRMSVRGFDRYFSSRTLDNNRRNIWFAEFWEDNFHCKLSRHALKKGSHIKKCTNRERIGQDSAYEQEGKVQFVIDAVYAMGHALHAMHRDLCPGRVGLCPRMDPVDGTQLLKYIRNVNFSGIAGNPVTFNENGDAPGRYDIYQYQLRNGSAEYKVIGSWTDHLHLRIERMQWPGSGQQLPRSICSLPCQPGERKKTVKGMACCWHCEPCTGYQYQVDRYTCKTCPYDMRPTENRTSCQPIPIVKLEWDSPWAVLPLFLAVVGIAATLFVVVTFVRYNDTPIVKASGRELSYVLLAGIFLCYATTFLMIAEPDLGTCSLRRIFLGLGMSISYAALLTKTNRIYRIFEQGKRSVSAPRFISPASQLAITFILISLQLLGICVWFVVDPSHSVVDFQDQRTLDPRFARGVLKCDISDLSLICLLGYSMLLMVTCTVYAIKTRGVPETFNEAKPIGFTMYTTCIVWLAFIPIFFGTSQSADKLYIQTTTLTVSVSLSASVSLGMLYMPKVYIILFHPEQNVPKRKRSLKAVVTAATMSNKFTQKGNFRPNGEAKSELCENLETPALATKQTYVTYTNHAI
smiles,measurement,setting,value
COC(=O)c1c(NC(=O)C(=O)N2CCCCC2)sc2c1CC(C)(C)OC2,IC50,[1],> 20 µM (inactive)
same,IC50,HEK293,> 20 µM (inactive)
same,IC50,[2],> 20 µM (inactive)
same,IC50,Tumor necrosis factor,> 20 µM (inactive)
CC1(C)CC[C@]2(C(=O)n3ccnc3)CC[C@]3(C)[C@H](C(=O)C=C4[C@@]5(C)C=C(C#N)C(=O)C(C)(C)[C@@H]5CC[C@]43C)[C@@H]2C1,IC50,Beta-galactosidase,> 66.6 µM (inactive)
same,IC50,Fatty acid synthase [3],2.85 µM (active)
same,CC50,[4],5.19 µM (active)
same,AC50,[5],< 0.26 µM (active)
same,IC50,[6],20.7 µM (active)
same,AC50,[7],5.13 µM (active)
same,IC50,Fatty acid synthase [8],1.77 µM (active)
same,IC50,[9],11.5 µM (active)
same,AC50,[10],0.376 µM (active)
same,IC50,Genome polyprotein,38.2 µM (active)
same,CC50,Vero,< 0.63 µM (active)
O=C(c1cc(-c2ccco2)nc2ccccc12)N1CCCCC1Cc1ccccc1 (stereo not drawn),IC50,[11],> 56.8 µM (inactive)
same,IC50,[12],> 56.8 µM (inactive)
O=C(Nc1ccc(N2C(=O)[C@@H]3[C@H](C2=O)[C@H]2C=C[C@@H]3CC2)c(Cl)c1)c1ccccn1,EC50,[13],0.25 µM (active)
